Source: US11021435B2, “Serotonin receptor-targeting compounds and methods” (priority 2014, dated 2021)
“Also recorded” adds a separate entry of the source.

How the values were obtained:
[1] = biological target: T1, human 5-HT7 receptors (5-HT7a) (Homo sapiens, UniProt P34969); test: Radioligand competition binding ([3H]5-CT), HEK293 cells stably expressing human 5-HT7 receptors; conditions: for Ki: human 5-HT7a, mean (SEM), at least three independent experiments, read-out: Affinity Ki 5-HT7
T1 construct: expressed in transfected cells
Description: FIGS. 4A-4C show the effects of 5-FPT are stereospecific. […] Data are expressed as the mean±SEM.

[2] = biological target: T2, 5-HT2C receptors (5-HT2C-INI) (Homo sapiens, UniProt P28335); test: Binding affinity, HEK293 cells transiently over-expressing human 5-HT2C; conditions: human 5-HT2C-INI
T2 construct: expressed in transfected cells; host or cells: HEK293, transient
T2 sequence (P28335 33-458): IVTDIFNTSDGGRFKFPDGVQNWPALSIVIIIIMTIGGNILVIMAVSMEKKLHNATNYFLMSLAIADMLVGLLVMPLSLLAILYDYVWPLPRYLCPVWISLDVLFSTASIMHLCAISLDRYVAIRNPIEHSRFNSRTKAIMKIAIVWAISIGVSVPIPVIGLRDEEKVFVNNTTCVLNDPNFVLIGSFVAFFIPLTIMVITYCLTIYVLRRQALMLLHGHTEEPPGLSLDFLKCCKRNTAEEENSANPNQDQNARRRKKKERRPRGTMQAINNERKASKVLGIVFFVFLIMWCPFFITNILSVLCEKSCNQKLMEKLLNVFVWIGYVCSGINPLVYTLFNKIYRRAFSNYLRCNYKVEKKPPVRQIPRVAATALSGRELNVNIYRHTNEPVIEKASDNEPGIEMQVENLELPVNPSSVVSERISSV

adrenergic α1A receptor = biological target: T3, adrenergic α1A receptor (Homo sapiens, UniProt P35348); test: Off-target binding affinity, adrenergic α1A
T3 construct: expressed in transfected cells; host or cells: HEK293, transient
T3 sequence (P35348 1-466): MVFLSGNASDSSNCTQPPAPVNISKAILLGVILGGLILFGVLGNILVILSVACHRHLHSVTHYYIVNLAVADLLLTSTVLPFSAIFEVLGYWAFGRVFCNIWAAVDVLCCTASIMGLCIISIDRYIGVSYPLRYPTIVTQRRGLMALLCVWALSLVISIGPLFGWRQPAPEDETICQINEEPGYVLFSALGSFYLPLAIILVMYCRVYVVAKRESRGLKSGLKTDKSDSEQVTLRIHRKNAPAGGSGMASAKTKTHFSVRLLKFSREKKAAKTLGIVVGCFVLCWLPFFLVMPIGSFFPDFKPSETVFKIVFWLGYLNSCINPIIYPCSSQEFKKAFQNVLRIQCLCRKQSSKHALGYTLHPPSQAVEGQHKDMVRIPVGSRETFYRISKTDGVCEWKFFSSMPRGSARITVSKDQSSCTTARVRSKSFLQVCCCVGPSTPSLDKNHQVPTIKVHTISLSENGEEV

adrenergic α1B receptor = biological target: T4, adrenergic α1B receptor (Homo sapiens, UniProt P35368); test: Off-target binding affinity, adrenergic α1B
T4 construct: expressed in transfected cells; host or cells: HEK293, transient
T4 sequence (P35368 1-520): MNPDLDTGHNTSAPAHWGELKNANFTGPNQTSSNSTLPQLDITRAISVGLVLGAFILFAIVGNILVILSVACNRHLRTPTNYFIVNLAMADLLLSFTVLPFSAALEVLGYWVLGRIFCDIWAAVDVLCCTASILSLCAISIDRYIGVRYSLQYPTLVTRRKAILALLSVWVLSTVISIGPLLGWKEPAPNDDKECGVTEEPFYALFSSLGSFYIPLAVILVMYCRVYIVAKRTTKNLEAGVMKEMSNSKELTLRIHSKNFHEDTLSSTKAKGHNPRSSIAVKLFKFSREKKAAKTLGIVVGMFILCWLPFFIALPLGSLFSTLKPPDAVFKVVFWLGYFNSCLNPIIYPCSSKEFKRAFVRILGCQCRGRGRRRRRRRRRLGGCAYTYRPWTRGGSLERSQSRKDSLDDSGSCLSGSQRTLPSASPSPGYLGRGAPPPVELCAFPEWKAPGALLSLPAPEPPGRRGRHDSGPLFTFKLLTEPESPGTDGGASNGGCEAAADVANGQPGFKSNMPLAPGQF

histamine H1 receptor = biological target: T5, histamine H1 receptor (Homo sapiens, UniProt P35367); test: Off-target binding affinity, histamine H1
T5 construct: expressed in transfected cells; host or cells: HEK293, transient

dopamine D2 receptor = biological target: T6, dopamine D2 receptor (Homo sapiens, UniProt P14416); test: Off-target binding affinity, dopamine D2
T6 construct: expressed in transfected cells; host or cells: HEK293, transient

[3] = biological target: T7, mouse 5-HT2C receptor (m5-HT2C-VNV) (Mus musculus, UniProt P34968, I157V/I161V); test: Binding affinity, HEK293 cells transiently expressing mouse 5-HT2C; conditions: for Ki: mouse m5-HT2C-VNV
T7 construct: expressed in transfected cells; host or cells: HEK293, transient
T7 sequence (P34968 33-459 I157V/I161V): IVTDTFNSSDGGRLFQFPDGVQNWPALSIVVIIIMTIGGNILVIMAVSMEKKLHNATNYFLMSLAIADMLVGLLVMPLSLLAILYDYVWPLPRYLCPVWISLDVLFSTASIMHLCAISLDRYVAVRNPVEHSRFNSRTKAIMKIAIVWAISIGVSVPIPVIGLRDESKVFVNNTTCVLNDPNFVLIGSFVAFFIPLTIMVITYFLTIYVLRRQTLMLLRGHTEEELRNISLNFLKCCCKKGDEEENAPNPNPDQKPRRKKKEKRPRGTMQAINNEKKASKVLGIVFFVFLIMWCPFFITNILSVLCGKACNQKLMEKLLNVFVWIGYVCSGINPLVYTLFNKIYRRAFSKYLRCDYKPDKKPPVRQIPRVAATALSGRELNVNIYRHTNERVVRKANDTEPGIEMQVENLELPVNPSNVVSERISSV

human 5-HT7 receptors = biological target: T8, human 5-HT7 receptors (Homo sapiens, UniProt P34969); test: Functional assay, 5-HT7 Gs-cAMP signaling, relative to AS-19; type: cell-based; conditions: for Functional activity at 5-HT7, in words / EC50: Gs-cAMP signaling
T8 construct: expressed in transfected cells

5-HT2A = 5-HT2A (Homo sapiens, UniProt P28223); test: Functional assay at 5-HT2A, relative to 5-HT; type: cell-based; set-up: expressed in transfected cells; host or cells: HEK293, transient; conditions: for Functional activity at 5-HT2A, in words: no activation stated up to 100 μM
5-HT2B = 5-HT2B (Homo sapiens, UniProt P41595); test: Functional assay at 5-HT2B, relative to 5-HT; type: cell-based; set-up: expressed in transfected cells; host or cells: HEK293, transient; conditions: for Functional activity at 5-HT2B, in words: up to 100 μM
5-HT2C = biological target: T9, 5-HT2C (Homo sapiens, UniProt P28335); test: Functional assay at 5-HT2C, relative to 5-HT; type: cell-based; set-up: expressed in transfected cells; host or cells: HEK293, transient
T9 sequence (P28335 33-458): T2 sequence (P28335 33-458)

[4] = % of maximal response relative to AS-19, mean (SEM)
[5] = % of maximal response relative to 5-HT, mean (SEM)

T1 sequence (P34969 1-445 isoform P34969-2): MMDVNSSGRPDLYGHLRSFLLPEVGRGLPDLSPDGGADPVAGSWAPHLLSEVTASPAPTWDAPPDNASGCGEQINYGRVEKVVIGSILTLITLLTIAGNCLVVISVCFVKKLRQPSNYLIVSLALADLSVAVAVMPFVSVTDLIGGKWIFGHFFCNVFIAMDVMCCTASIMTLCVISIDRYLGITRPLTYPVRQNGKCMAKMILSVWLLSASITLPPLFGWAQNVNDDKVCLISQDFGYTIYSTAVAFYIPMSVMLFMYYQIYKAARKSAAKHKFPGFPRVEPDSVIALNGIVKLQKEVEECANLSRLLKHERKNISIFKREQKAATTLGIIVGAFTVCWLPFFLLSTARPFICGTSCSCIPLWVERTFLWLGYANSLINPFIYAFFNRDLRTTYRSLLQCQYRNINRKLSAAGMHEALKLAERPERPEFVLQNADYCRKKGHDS
T8 sequence (P34969 1-445 isoform P34969-2): as above
5-HT2A, sequence (P28223 whole entry): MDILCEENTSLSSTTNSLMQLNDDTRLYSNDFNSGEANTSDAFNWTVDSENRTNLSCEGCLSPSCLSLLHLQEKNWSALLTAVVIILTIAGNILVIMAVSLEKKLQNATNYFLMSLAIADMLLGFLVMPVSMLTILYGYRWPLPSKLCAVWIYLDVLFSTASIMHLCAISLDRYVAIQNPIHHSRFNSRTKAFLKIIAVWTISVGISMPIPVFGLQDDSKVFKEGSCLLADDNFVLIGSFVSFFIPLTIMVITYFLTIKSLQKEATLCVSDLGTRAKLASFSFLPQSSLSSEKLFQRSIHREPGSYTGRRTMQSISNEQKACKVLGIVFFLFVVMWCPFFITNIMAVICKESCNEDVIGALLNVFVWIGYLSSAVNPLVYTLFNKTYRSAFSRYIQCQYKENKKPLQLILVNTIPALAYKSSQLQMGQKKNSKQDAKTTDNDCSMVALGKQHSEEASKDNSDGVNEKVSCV
5-HT2B, sequence (P41595 whole entry): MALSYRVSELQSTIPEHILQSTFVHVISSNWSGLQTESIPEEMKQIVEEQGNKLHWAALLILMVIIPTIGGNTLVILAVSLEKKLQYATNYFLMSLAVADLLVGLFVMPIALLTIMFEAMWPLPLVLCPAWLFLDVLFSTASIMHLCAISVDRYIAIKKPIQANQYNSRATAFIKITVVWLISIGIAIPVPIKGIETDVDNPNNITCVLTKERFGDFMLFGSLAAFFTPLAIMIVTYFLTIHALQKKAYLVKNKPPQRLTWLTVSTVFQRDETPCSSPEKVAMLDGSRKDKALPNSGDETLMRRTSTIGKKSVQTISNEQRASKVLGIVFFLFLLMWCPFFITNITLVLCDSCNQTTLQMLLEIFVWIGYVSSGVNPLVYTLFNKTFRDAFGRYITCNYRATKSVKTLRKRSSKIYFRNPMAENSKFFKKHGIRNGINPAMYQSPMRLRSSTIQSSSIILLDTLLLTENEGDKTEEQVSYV
T6 sequence (P14416 whole entry): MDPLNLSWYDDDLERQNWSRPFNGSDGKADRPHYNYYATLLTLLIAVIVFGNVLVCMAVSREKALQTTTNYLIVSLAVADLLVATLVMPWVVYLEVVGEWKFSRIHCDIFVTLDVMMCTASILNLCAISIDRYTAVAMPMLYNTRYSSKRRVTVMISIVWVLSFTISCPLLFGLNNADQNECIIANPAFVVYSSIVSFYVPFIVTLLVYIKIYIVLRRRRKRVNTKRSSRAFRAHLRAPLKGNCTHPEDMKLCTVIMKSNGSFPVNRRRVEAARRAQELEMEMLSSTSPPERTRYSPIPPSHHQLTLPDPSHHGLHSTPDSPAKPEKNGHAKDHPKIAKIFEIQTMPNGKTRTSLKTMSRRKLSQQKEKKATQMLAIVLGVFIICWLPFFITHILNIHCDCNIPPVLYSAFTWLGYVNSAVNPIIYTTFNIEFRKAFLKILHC
T5 sequence (P35367 whole entry): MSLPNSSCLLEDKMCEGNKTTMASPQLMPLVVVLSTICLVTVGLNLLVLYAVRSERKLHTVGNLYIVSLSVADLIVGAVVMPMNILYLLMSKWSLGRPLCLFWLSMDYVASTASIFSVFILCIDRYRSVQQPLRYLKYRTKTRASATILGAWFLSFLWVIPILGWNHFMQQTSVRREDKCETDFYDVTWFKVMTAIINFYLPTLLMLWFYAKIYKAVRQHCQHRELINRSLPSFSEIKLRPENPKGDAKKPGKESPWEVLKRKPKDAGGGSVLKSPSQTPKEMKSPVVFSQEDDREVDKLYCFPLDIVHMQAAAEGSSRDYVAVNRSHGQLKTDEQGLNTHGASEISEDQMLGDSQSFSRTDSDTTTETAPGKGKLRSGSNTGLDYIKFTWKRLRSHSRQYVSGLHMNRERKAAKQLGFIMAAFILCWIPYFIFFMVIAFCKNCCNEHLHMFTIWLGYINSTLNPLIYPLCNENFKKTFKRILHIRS

SMILES	Ki [1] [nM]	Ki (adrenergic α1A receptor) [nM]	Ki (adrenergic α1B receptor) [nM]	Ki (histamine H1 receptor) [nM]	Ki (dopamine D2 receptor) [nM]	Functional activity at 5-HT7, in words (human 5-HT7 receptors)	EC50 (human 5-HT7 receptors; mean (SEM)) [nM]	Functional activity at 5-HT2A, in words (5-HT2A)	Functional activity at 5-HT2B, in words (5-HT2B)	Functional activity at 5-HT2C, in words (5-HT2C)	also measured
CN(C)C1CCc2c(cccc2-c2ccccc2F)C1 (single isomer, unassigned; (-)) [(−)-5-FPT, 5-(2′-fluorophenyl)-N,N-dimethyl-1,2,3,4-tetrahydronaphthalen-2-amine]	460	> 10000	> 10000	> 1000	> 1000	partial agonism; also recorded: low-potency	378	did not activate	did not activate	low-potency	Ki ([2]; bound given in μM): > 1 µM; Ki ([3]; bound given in μM): > 1 µM; EMAX 5-HT7 (human 5-HT7 receptors; [4]): 29%; 5-HT7 functional potency, (−)-enantiomer less potent than (+)-isomer (human 5-HT7 receptors; ratio of EC50 values): about 11 times
CN(C)C1CCc2c(cccc2-c2ccccc2F)C1 (single isomer, unassigned; (+)) [(+)-5-FPT, 5-(2′-fluorophenyl)-N,N-dimethyl-1,2,3,4-tetrahydronaphthalen-2-amine]	5.8	> 10000	> 10000	> 1000	> 1000	partial agonist	34	very low potency, partial agonist	devoid of 5-HT2B activity	nearly full-efficacy agonist	5-HT7 affinity, (+)-enantiomer more potent than (−)-enantiomer ([1]; ratio of Ki values): about 80 times; Ki ([2]; mean (SEM)): 0.269 µM; Mouse 5-HT2C versus human 5-HT2C receptor affinity [3]: ~2.5 times; Ki ([3]; mean (SEM)): 0.644 µM; Emax (human 5-HT7 receptors; [4]): 33%; Emax (5-HT2A; [5]): 39%; EC50 (5-HT2A; mean (SEM)): 3530 nM; EC50 5-HT2B (5-HT2B; Inactive = no activation up to 100 μM): Inactive; EMAX 5-HT2B (5-HT2B; relative to 5-HT, Inactive = no activation up to 100 μM): Inactive; Emax (5-HT2C; [5]): 87%; EC50 (5-HT2C; mean (SEM)): 230 nM
